What was measured:
[1] = molecular target: T1, Glycogen phosphorylase, muscle form (Oryctolagus cuniculus, UniProt P00489)
T1 sequence (P00489 whole entry): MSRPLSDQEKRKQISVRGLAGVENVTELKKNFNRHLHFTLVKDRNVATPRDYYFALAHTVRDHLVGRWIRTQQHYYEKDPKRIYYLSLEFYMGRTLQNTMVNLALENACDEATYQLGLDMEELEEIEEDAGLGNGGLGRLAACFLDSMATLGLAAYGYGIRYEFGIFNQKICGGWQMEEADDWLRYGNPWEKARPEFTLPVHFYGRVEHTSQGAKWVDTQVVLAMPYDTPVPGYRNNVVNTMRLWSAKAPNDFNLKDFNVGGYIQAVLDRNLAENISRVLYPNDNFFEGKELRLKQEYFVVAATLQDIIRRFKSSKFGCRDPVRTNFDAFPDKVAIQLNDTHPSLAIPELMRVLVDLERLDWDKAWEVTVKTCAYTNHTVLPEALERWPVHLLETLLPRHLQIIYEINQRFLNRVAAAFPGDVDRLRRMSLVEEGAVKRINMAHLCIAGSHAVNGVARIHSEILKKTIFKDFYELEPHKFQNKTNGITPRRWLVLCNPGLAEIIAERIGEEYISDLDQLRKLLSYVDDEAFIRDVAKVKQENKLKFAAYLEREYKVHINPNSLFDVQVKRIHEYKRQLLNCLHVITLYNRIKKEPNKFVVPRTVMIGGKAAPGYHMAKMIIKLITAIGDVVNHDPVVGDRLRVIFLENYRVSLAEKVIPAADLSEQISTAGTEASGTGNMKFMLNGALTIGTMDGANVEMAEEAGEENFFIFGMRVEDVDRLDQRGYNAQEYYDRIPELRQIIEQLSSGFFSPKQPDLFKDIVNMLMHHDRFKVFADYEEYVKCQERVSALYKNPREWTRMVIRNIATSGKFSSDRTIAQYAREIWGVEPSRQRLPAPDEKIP
Description: (§1) Inhibition of rabbit muscle glycogen phosphorylase b assessed as inorganic phosphate release at pH 6.8

[2] = molecular target: T1, Glycogen phosphorylase, muscle form; remark: listed apart in the source
Description: as §1

| Compound | Ki [1] | Ki [2] |
| --- | --- | --- |
| O=C(NC(=O)c1ccc(C(=O)OCc2ccccc2)cc1)N[C@@H]1O[C@H](CO)[C@@H](O)[C@H](O)[C@H]1O | 150 µM | – |
| COC(=O)c1ccc(C(=O)NC(=O)N[C@@H]2O[C@H](CO)[C@@H](O)[C@H](O)[C@H]2O)cc1 | 4 µM | – |
| CC(=O)NC(=O)N[C@@H]1O[C@H](CO)[C@@H](O)[C@H](O)[C@H]1O | 370 µM | – |
| COC(=O)N[C@@H]1O[C@H](CO)[C@@H](O)[C@H](O)[C@H]1O | 210 µM | – |
| [N-]=[N+]=NCC(=O)N[C@@H]1O[C@H](CO)[C@@H](O)[C@H](O)[C@H]1O | 49 µM | – |
| O=C(O)CCC(=O)N[C@@H]1O[C@H](CO)[C@@H](O)[C@H](O)[C@H]1O | 20 µM | – |
| O=C(N[C@@H]1O[C@H](CO)[C@@H](O)[C@H](O)[C@H]1O)C(F)(F)F | 75 µM | – |
| COc1ccc(C(=O)NC(=O)N[C@@H]2O[C@H](CO)[C@@H](O)[C@H](O)[C@H]2O)cc1 | 3.2 µM | – |
| O=C(N[C@H]1O[C@H](CO)[C@@H](O)[C@H](O)[C@H]1O)C(F)(F)F | – | Not Active |
| O=C(NC(=O)c1ccc(Cl)cc1)N[C@@H]1O[C@H](CO)[C@@H](O)[C@H](O)[C@H]1O | 4.4 µM | – |
| O=C(NC(=O)c1ccc(-c2ccccc2)cc1)N[C@@H]1O[C@H](CO)[C@@H](O)[C@H](O)[C@H]1O | 3.7 µM | – |
| NC(=O)NC1O[C@H](CO)[C@@H](O)[C@H](O)[C@H]1O (single isomer, unassigned) | 140 µM | – |
| O=C(NC(=O)c1ccc(C(=O)O)cc1)N[C@@H]1O[C@H](CO)[C@@H](O)[C@H](O)[C@H]1O | 85 µM | – |

Reference: ChEMBL document CHEMBL1944601, “N-(4-Substituted-benzoyl)-N'-(β-d-glucopyranosyl)ureas as inhibitors of glycogen phosphorylase: Synthesis and evaluation by kinetic, crystallographic, and molecular modelling methods” (Bioorg Med Chem, 2012)
